Data from PubChem BioAssay (NCI).
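Following 48 hours of exposure in 96-well plates, responses at five concentrations were used to interpolate endpoints linearly. Here, GI50 denotes the concentration required for 50% inhibition of growth. TGI: concentration producing complete growth inhibition.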

Columns and labels:
Test in all cases: NCI-60 cell line screen, 48 h
A498 renal = test system: A498 renal
CAKI-1 renal = test system: CAKI-1 renal
SF-539 CNS = test system: SF-539 CNS
PC-3 prostate = test system: PC-3 prostate
SN12C renal = test system: SN12C renal
SK-MEL-2 melanoma = test system: SK-MEL-2 melanoma
BT-549 breast = test system: BT-549 breast
KM12 colon = test system: KM12 colon
NCI-H226 lung = test system: NCI-H226 lung
MDA-MB-231 breast = test system: MDA-MB-231 breast
DU-145 prostate = test system: DU-145 prostate
IGROV1 ovarian = test system: IGROV1 ovarian
OVCAR-4 ovarian = test system: OVCAR-4 ovarian
NCI-H522 lung = test system: NCI-H522 lung
HOP-92 NSCLC = test system: HOP-92 NSCLC
NCI-H460 lung = test system: NCI-H460 lung
A549 NSCLC = test system: A549 NSCLC
UO-31 renal = test system: UO-31 renal
HL-60(TB) leukemia = test system: HL-60(TB) leukemia
MALME-3M melanoma = test system: MALME-3M melanoma
ACHN renal = test system: ACHN renal
SW-620 colon = test system: SW-620 colon
HCC-2998 colon = test system: HCC-2998 colon
UACC-62 melanoma = test system: UACC-62 melanoma
OVCAR-8 ovarian = test system: OVCAR-8 ovarian
786-0 renal = test system: 786-0 renal
NCI/ADR-RES ovarian = test system: NCI/ADR-RES ovarian
SK-MEL-5 melanoma = test system: SK-MEL-5 melanoma
K-562 leukemia = test system: K-562 leukemia
COLO 205 colon = test system: COLO 205 colon
HOP-62 NSCLC = test system: HOP-62 NSCLC
LOX IMVI melanoma = test system: LOX IMVI melanoma
U251 CNS = test system: U251 CNS
SK-OV-3 ovarian = test system: SK-OV-3 ovarian
SNB-75 CNS = test system: SNB-75 CNS
OVCAR-3 ovarian = test system: OVCAR-3 ovarian
HT29 colon = test system: HT29 colon
CCRF-CEM leukemia = test system: CCRF-CEM leukemia
SR leukemia = test system: SR leukemia
SNB-19 CNS = test system: SNB-19 CNS
MDA-MB-435 = test system: MDA-MB-435
SF-268 CNS = test system: SF-268 CNS
RPMI-8226 leukemia = test system: RPMI-8226 leukemia
SF-295 CNS = test system: SF-295 CNS
HCT-116 colon = test system: HCT-116 colon
EKVX NSCLC = test system: EKVX NSCLC
NCI-H23 lung = test system: NCI-H23 lung
T-47D breast = test system: T-47D breast
SK-MEL-28 melanoma = test system: SK-MEL-28 melanoma
OVCAR-5 ovarian = test system: OVCAR-5 ovarian
MCF7 breast = test system: MCF7 breast
M14 melanoma = test system: M14 melanoma
HS 578T breast = test system: HS 578T breast
HCT-15 colon = test system: HCT-15 colon
TK-10 renal = test system: TK-10 renal
RXF 393 renal = test system: RXF 393 renal
UACC-257 melanoma = test system: UACC-257 melanoma
MOLT-4 leukemia = test system: MOLT-4 leukemia
MDA-N = test system: MDA-N

## O=C(NCC1CC1)c1ccc(-c2cccc(C(=O)NC3CC3)c2)cc1
A498 renal
  GI50: > 15.8 µM
  TGI: > 25 µM
CAKI-1 renal
  GI50: > 25 µM
  TGI: > 25 µM
SF-539 CNS
  GI50: > 25 µM
  TGI: > 25 µM
PC-3 prostate
  GI50: > 25 µM
  TGI: > 25 µM
SN12C renal
  GI50: > 25 µM
  TGI: > 25 µM
SK-MEL-2 melanoma
  GI50: > 25 µM
  TGI: > 25 µM
BT-549 breast
  GI50: > 25 µM
  TGI: > 25 µM
KM12 colon
  GI50: > 25 µM
  TGI: > 25 µM
NCI-H226 lung
  GI50: > 25 µM
  TGI: > 25 µM
MDA-MB-231 breast
  GI50: > 25 µM
  TGI: > 25 µM
DU-145 prostate
  GI50: > 25 µM
  TGI: > 25 µM
IGROV1 ovarian
  GI50: > 25 µM
  TGI: > 25 µM
OVCAR-4 ovarian
  GI50: > 25 µM
  TGI: > 25 µM
NCI-H522 lung
  GI50: > 25 µM
  TGI: > 25 µM
HOP-92 NSCLC
  GI50: 6.66 µM
  TGI: > 25 µM
NCI-H460 lung
  GI50: > 25 µM
  TGI: > 25 µM
A549 NSCLC
  GI50: > 25 µM
  TGI: > 25 µM
UO-31 renal
  GI50: > 25 µM
  TGI: > 25 µM
HL-60(TB) leukemia
  GI50: > 25 µM
  TGI: > 25 µM
MALME-3M melanoma
  GI50: > 25 µM
  TGI: > 25 µM
ACHN renal
  GI50: > 25 µM
  TGI: > 25 µM
SW-620 colon
  GI50: > 25 µM
  TGI: > 25 µM
HCC-2998 colon
  GI50: > 25 µM
  TGI: > 25 µM
UACC-62 melanoma
  GI50: > 25 µM
  TGI: > 25 µM
OVCAR-8 ovarian
  GI50: > 25 µM
  TGI: > 25 µM
786-0 renal
  GI50: > 25 µM
  TGI: > 25 µM
NCI/ADR-RES ovarian
  GI50: > 25 µM
  TGI: > 25 µM
SK-MEL-5 melanoma
  GI50: > 25 µM
  TGI: > 25 µM
K-562 leukemia
  GI50: > 25 µM
  TGI: > 25 µM
COLO 205 colon
  GI50: > 25 µM
  TGI: > 25 µM
HOP-62 NSCLC
  GI50: > 25 µM
  TGI: > 25 µM
LOX IMVI melanoma
  GI50: > 25 µM
  TGI: > 25 µM
U251 CNS
  GI50: > 25 µM
  TGI: > 25 µM
SK-OV-3 ovarian
  GI50: > 25 µM
  TGI: > 25 µM
SNB-75 CNS
  GI50: > 25 µM
  TGI: > 25 µM
OVCAR-3 ovarian
  GI50: > 25 µM
  TGI: > 25 µM
HT29 colon
  GI50: > 25 µM
  TGI: > 25 µM
CCRF-CEM leukemia
  GI50: > 25 µM
  TGI: > 25 µM
SR leukemia
  GI50: > 23.3 µM
  TGI: > 25 µM
SNB-19 CNS
  GI50: > 25 µM
  TGI: > 25 µM
MDA-MB-435
  GI50: > 25 µM
  TGI: > 25 µM
SF-268 CNS
  GI50: > 25 µM
  TGI: > 25 µM
RPMI-8226 leukemia
  GI50: > 25 µM
  TGI: > 25 µM
SF-295 CNS
  GI50: > 25 µM
  TGI: > 25 µM
HCT-116 colon
  GI50: > 25 µM
  TGI: > 25 µM
EKVX NSCLC
  GI50: > 25 µM
  TGI: > 25 µM
NCI-H23 lung
  GI50: > 25 µM
  TGI: > 25 µM
T-47D breast
  GI50: > 25 µM
  TGI: > 25 µM
SK-MEL-28 melanoma
  GI50: > 25 µM
  TGI: > 25 µM
OVCAR-5 ovarian
  GI50: > 25 µM
  TGI: > 25 µM
MCF7 breast
  GI50: > 25 µM
  TGI: > 25 µM
M14 melanoma
  GI50: > 25 µM
  TGI: > 25 µM
HS 578T breast
  GI50: > 25 µM
  TGI: > 25 µM
HCT-15 colon
  GI50: > 25 µM
  TGI: > 25 µM
TK-10 renal
  GI50: > 25 µM
  TGI: > 25 µM
RXF 393 renal
  GI50: > 25 µM
  TGI: > 25 µM
UACC-257 melanoma
  GI50: > 25 µM
  TGI: > 25 µM
MOLT-4 leukemia
  GI50: > 25 µM
  TGI: > 25 µM

## [N-]=[N+]=Nc1c(Cc2ccccc2)c(Cl)nc2ccccc12
A498 renal
  TGI: 65.3 µM
CAKI-1 renal
  TGI: 92.3 µM
SF-539 CNS
  TGI: 41.3 µM
PC-3 prostate
  TGI: > 100 µM
SN12C renal
  TGI: 73.8 µM
SK-MEL-2 melanoma
  TGI: 33.4 µM
KM12 colon
  TGI: 61.2 µM
NCI-H226 lung
  TGI: 59.7 µM
MDA-MB-231 breast
  TGI: 56.7 µM
DU-145 prostate
  TGI: > 100 µM
IGROV1 ovarian
  TGI: > 100 µM
OVCAR-4 ovarian
  TGI: > 100 µM
NCI-H522 lung
  TGI: > 100 µM
HOP-92 NSCLC
  TGI: 64.4 µM
NCI-H460 lung
  TGI: > 100 µM
A549 NSCLC
  TGI: > 100 µM
UO-31 renal
  TGI: > 100 µM
HL-60(TB) leukemia
  TGI: 56.6 µM
MALME-3M melanoma
  TGI: 41.8 µM
ACHN renal
  TGI: > 100 µM
SW-620 colon
  TGI: > 100 µM
HCC-2998 colon
  TGI: > 100 µM
UACC-62 melanoma
  TGI: 68.8 µM
OVCAR-8 ovarian
  TGI: 46.5 µM
786-0 renal
  TGI: > 100 µM
NCI/ADR-RES ovarian
  TGI: > 100 µM
SK-MEL-5 melanoma
  TGI: 30 µM
K-562 leukemia
  TGI: 83.7 µM
COLO 205 colon
  TGI: 35.2 µM
HOP-62 NSCLC
  TGI: 51 µM
LOX IMVI melanoma
  TGI: 38.5 µM
SK-OV-3 ovarian
  TGI: > 100 µM
SNB-75 CNS
  TGI: 93.3 µM
OVCAR-3 ovarian
  TGI: 38.4 µM
HT29 colon
  TGI: > 100 µM
CCRF-CEM leukemia
  TGI: > 100 µM
MDA-N
  TGI: > 100 µM
SNB-19 CNS
  TGI: 83.1 µM
MDA-MB-435
  TGI: 37.2 µM
SF-268 CNS
  TGI: > 100 µM
RPMI-8226 leukemia
  TGI: 87.3 µM
SF-295 CNS
  TGI: 62.1 µM
HCT-116 colon
  TGI: 53 µM
EKVX NSCLC
  TGI: > 100 µM
NCI-H23 lung
  TGI: > 100 µM
T-47D breast
  TGI: > 100 µM
SK-MEL-28 melanoma
  TGI: > 100 µM
OVCAR-5 ovarian
  TGI: > 100 µM
MCF7 breast
  TGI: 58.8 µM
M14 melanoma
  TGI: 49.4 µM
HS 578T breast
  TGI: 54.4 µM
HCT-15 colon
  TGI: > 100 µM
TK-10 renal
  TGI: 53 µM
RXF 393 renal
  TGI: 39.6 µM
UACC-257 melanoma
  TGI: > 100 µM
MOLT-4 leukemia
  TGI: > 100 µM
